In patent publication US20250304563A1, “ACTIVATORS OF EFFECTOR T CELLS” (Orum Therapeutics, Inc., priority 2022, published 2025):

Assays:
[1] = target: Cbl-b (36-427 aa truncated form, N-terminus Avi-tag) (Homo sapiens (Human), UniProt Q13191); assay: Cbl-b binding: TR-FRET displacement of BODIPY-FL probe
In short: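 IC50 from loss of terbium–BODIPY-FL TR-FRET signal as compounds compete off a fluorescent Cbl-b inhibitor probe (1 uM) for 1 h at RT. Protein: N-Avi-tagged human Cbl-b 36-427 on streptavidin-terbium, 20 mM HEPES pH 7.5 buffer.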

Human primary T cells [2] = assay: T cell activation: secreted IL-2; format: cell-based; settings: 48 hours, fold over background normalized to Compound 141A; for IL-2 1 nM: 1 nM compound; for IL-2 10 nM: 10 nM compound; for IL-2 100 nM: 100 nM compound
In short: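 IL-2 values are fold over anti-CD3/CD28 background, normalized to a reference compound and sorted into ranges. They come from supernatants of human pan-T cells captured on anti-CD3-coated plates and exposed 48 h, 37° C., to duplicate compound dilutions, measured with cytometric beads.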

Human primary T cells [3] = assay: T cell activation: secreted IFN-y; format: cell-based; settings: 48 hours, fold over background normalized to Compound 141A; for IFN-y 1 nM: 1 nM compound; for IFN-y 10 nM: 10 nM compound; for IFN-y 100 nM: 100 nM compound
In short: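 Values are binned ranges (A–D) of fold increase over anti-CD3/CD28 background, normalized to a reference compound, for IFN-γ in supernatants measured by bead array. Pan-T cells from donor PBMC or LeukoPaks were stimulated on anti-CD3-coated wells (10 μg/mL coating) in serum-free medium with compound for 48 h at 37 °C.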

Human primary T cells [4] = assay: T cell activation: CD69 surface expression by flow cytometry; format: cell-based; settings: fold over anti-CD3 stimulated background normalized to Compound 141A; for CD69 1 nM: 1 nM compound; for CD69 10 nM: 10 nM compound; for CD69 100 nM: 100 nM compound
In short: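 Read-out is flow-cytometric CD69 surface staining, expressed as fold increase over anti-CD3-stimulated background and normalized to Compound 141A. Human pan T cells from PBMC or LeukoPaks were plated on OKT3-coated wells in serum-free XVivo-15. Compound dilutions were added for 48 h at 37° C, 5% CO2.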

Chain of Cbl-b (36-427 aa truncated form, N-terminus Avi-tag) (Q13191 36-427): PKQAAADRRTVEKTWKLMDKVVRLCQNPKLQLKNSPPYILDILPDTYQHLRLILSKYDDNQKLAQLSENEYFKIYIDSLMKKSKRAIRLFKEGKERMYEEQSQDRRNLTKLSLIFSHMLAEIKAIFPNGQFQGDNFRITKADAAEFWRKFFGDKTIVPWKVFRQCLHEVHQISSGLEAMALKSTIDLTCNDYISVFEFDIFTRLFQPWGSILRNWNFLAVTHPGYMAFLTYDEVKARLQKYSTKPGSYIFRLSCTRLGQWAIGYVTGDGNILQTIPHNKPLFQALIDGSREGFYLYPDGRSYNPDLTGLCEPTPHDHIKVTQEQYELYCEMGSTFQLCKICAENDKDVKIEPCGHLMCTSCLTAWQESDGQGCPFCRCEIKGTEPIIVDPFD

| Structure (SMILES) | IC50 [1] [nM] | IL-2 1 nM (Human primary T cells [2]) | IL-2 10 nM (Human primary T cells [2]) | IL-2 100 nM (Human primary T cells [2]) | IFN-y 1 nM (Human primary T cells [3]) | IFN-y 10 nM (Human primary T cells [3]) | IFN-y 100 nM (Human primary T cells [3]) | CD69 1 nM (Human primary T cells [4]) | CD69 10 nM (Human primary T cells [4]) | CD69 100 nM (Human primary T cells [4]) |
| --- | --- | --- | --- | --- | --- | --- | --- | --- | --- | --- |
| CSc1cc(CN2CCC[C@H](C)C2)cc2c1CN(c1cc(C3(Cc4nncn4C)COC3)cc(NCCC#N)n1)C2=O.O=C(O)C(F)(F)F [Compound 154, 3-[(4-{3-[(4-methyl-1,2,4-triazol-3-yl)methyl]oxetan-3-yl}-6-(6-{[(3S)-3-methylpiperidin-1-yl]methyl}-4-(methylsulfanyl)-1-oxo-3H-isoindol-2-yl)pyridin-2-yl)amino]propanenitrile; trifluoroacetic acid] | 1 to 5 | D (values between 0.01 and 0.09: range “D.”) | D (values between 0.01 and 0.09: range “D.”) | C (values between 0.10 and 0.30: range “C”) | B (values between 0.31 and 1.00: range “B;”) | B (values between 0.31 and 1.00: range “B;”) | B (values between 0.31 and 1.00: range “B;”) | C (values between 0.30 and 0.60: range “C”) | C (values between 0.30 and 0.60: range “C”) | B (values between 0.61 and 0.80: range “B;”) |
| Cn1cnnc1CC1(c2cc(NCCC#N)nc(N3Cc4c(cc(CN5CCCC6OCCC65)cc4C(F)(F)F)C3=O)c2)COC1 (stereo not drawn) [Compound 162, 3-{[6-(6-{hexahydro-2H-furo[3,2-b]pyridin-4-ylmethyl}-1-oxo-4-(trifluoromethyl)-3H-isoindol-2-yl)-4-{3-[(4-methyl-1,2,4-triazol-3-yl)methyl]oxetan-3-yl}pyridin-2-yl]amino}propanenitrile] | 5.01 to 20 | D (values between 0.01 and 0.09: range “D.”) | D (values between 0.01 and 0.09: range “D.”) | D (values between 0.01 and 0.09: range “D.”) | C (values between 0.10 and 0.30: range “C”) | B (values between 0.31 and 1.00: range “B;”) | B (values between 0.31 and 1.00: range “B;”) | C (values between 0.30 and 0.60: range “C”) | C (values between 0.30 and 0.60: range “C”) | C (values between 0.30 and 0.60: range “C”) |
| Cn1cnnc1CC1(c2cc(NCCC#N)nc(N3Cc4c(cc(CN5CC6(F)CC(CO)(C5)C6)cc4C(F)(F)F)C3=O)c2)COC1.O=C(O)C(F)(F)F [Compound 164, 3-{[6-(6-{[1-fluoro-5-(hydroxymethyl)-3-azabicyclo[3.1.1]heptan-3-yl]methyl}-1-oxo-4-(trifluoromethyl)-3H-isoindol-2-yl)-4-{3-[(4-methyl-1,2,4-triazol-3-yl)methyl]oxetan-3-yl}pyridin-2-yl]amino}propanenitrile; trifluoroacetic acid] | 5.01 to 20 | C (values between 0.10 and 0.30: range “C”) | C (values between 0.10 and 0.30: range “C”) | C (values between 0.10 and 0.30: range “C”) | C (values between 0.10 and 0.30: range “C”) | C (values between 0.10 and 0.30: range “C”) | B (values between 0.31 and 1.00: range “B;”) | C (values between 0.30 and 0.60: range “C”) | C (values between 0.30 and 0.60: range “C”) | C (values between 0.30 and 0.60: range “C”) |
| CCSc1cc(C2(Cc3nncn3C)COC2)cc(N2Cc3c(C=O)cc(CN4CCC[C@H](C)C4)cc3C2=O)n1 [Compound 169, 2-[6-(ethylsulfanyl)-4-{3-[(4-methyl-1,2,4-triazol-3-yl)methyl]oxetan-3-yl}pyridin-2-yl]-6-{[(3S)-3-methylpiperidin-1-yl]methyl}-1-oxo-3H-isoindole-4-carbaldehyde] | 5.01 to 20 | C (values between 0.10 and 0.30: range “C”) | C (values between 0.10 and 0.30: range “C”) | C (values between 0.10 and 0.30: range “C”) | C (values between 0.10 and 0.30: range “C”) | B (values between 0.31 and 1.00: range “B;”) | B (values between 0.31 and 1.00: range “B;”) | C (values between 0.30 and 0.60: range “C”) | C (values between 0.30 and 0.60: range “C”) | C (values between 0.30 and 0.60: range “C”) |
| CSc1cc(C(CO)N2CCC[C@H](C)C2)cc2c1CN(c1cccc([C@]3(c4nncn4C)C[C@H](C)C3)c1)C2=O (stereo partly drawn) [Compound 170, 6-{2-hydroxy-1-[(3S)-3-methylpiperidin-1-yl]ethyl}-4-(methylsulfanyl)-2-{3-[(1r,3s)-3-methyl-1-(4-methyl-1,2,4-triazol-3-yl)cyclobutyl]phenyl}-3H-isoindol-1-one] | 1 to 5 | C (values between 0.10 and 0.30: range “C”) | C (values between 0.10 and 0.30: range “C”) | B (values between 0.31 and 0.79: range “B”) | B (values between 0.31 and 1.00: range “B;”) | B (values between 0.31 and 1.00: range “B;”) | B (values between 0.31 and 1.00: range “B;”) | C (values between 0.30 and 0.60: range “C”) | C (values between 0.30 and 0.60: range “C”) | A (values between 0.81 and 1.10: range “A”) |
| CCNc1cc(C2(c3nncn3C)CC(C)C2)cc(N2Cc3c(cc(CN4CCC[C@H](C)C4)cc3C(F)(F)F)C2=O)n1 (stereo partly drawn) [Compound 171, 2-[6-(ethylamino)-4-[(1r,3s)-3-methyl-1-(4-methyl-1,2,4-triazol-3-yl)cyclobutyl]pyridin-2-yl]-6-{[(3 S)-3-methylpiperidin-1-yl]methyl}-4-(trifluoromethyl)-3H-isoindol-1-one] | 100 to 1000 | C (values between 0.10 and 0.30: range “C”) | C (values between 0.10 and 0.30: range “C”) | B (values between 0.31 and 0.79: range “B”) | B (values between 0.31 and 1.00: range “B;”) | B (values between 0.31 and 1.00: range “B;”) | A (fold over background between 1.10 and 2.00: range “A”) | C (values between 0.30 and 0.60: range “C”) | C (values between 0.30 and 0.60: range “C”) | X (fold over background values between 1.11 and 1.6: range “X”) |
| CSc1cc(CN2CCC[C@H](C)C2)cc2c1CN(c1cc(C3(Cc4nncn4C)COC3)cc(N)n1)C2=O [Compound 173] | 1 to 5 | D (values between 0.01 and 0.09: range “D.”) | D (values between 0.01 and 0.09: range “D.”) | D (values between 0.01 and 0.09: range “D.”) | C (values between 0.10 and 0.30: range “C”) | B (values between 0.31 and 1.00: range “B;”) | B (values between 0.31 and 1.00: range “B;”) | C (values between 0.30 and 0.60: range “C”) | C (values between 0.30 and 0.60: range “C”) | C (values between 0.30 and 0.60: range “C”) |
| CSc1cc(CN2CCC[C@H](C)C2)cc2c1CN(c1cc([C@]3(c4nncn4C)C[C@H](C)C3)cc(N)n1)C2=O [Compound 174, 2-{6-amino-4-[(1r,3s)-3-methyl-1-(4-methyl-1,2,4-triazol-3-yl)cyclobutyl]pyridin-2-yl}-6-{[(3S)-3-methylpiperidin-1-yl]methyl}-4-(methylsulfanyl)-3H-isoindol-1-one] | 5.01 to 20 | D (values between 0.01 and 0.09: range “D.”) | D (values between 0.01 and 0.09: range “D.”) | B (values between 0.31 and 0.79: range “B”) | B (values between 0.31 and 1.00: range “B;”) | B (values between 0.31 and 1.00: range “B;”) | B (values between 0.31 and 1.00: range “B;”) | C (values between 0.30 and 0.60: range “C”) | C (values between 0.30 and 0.60: range “C”) | B (values between 0.61 and 0.80: range “B;”) |
| CCNc1cc(C2(Cc3nncn3C)COC2)cc(N2Cc3c(SC)cc(CN4CCCCC4)cc3C2=O)n1 [Compound 175, 2-[6-(ethylamino)-4-{3-[(4-methyl-1,2,4-triazol-3-yl)methyl]oxetan-3-yl}pyridin-2-yl]-4-(methylsulfanyl)-6-(piperidin-1-ylmethyl)-3H-isoindol-1-one] | 1 to 5 | D (values between 0.01 and 0.09: range “D.”) | D (values between 0.01 and 0.09: range “D.”) | C (values between 0.10 and 0.30: range “C”) | C (values between 0.10 and 0.30: range “C”) | B (values between 0.31 and 1.00: range “B;”) | B (values between 0.31 and 1.00: range “B;”) | C (values between 0.30 and 0.60: range “C”) | C (values between 0.30 and 0.60: range “C”) | B (values between 0.61 and 0.80: range “B;”) |
